These results are taken from ChEMBL document CHEMBL3507680, “University of Dundee, Gates Library screen for HepG2 cell viability”.

Each structure is given as a SMILES string.

The nature of the data set: Human HepG2 cell viability assay in 384 well format. Conditions: HepG2 cells, read-out: Inhibition. Set-up: dose 125 nL, time 70.5 hour; concentration not given beside the values. It counts as toxicity, cell-based.
In the case of `CN(C)c1ccc(CC2CCN(c3cnccn3)CC2)nn1`, the cytotoxicity at 70.5 h is -7.84%.

As for `O=C(C1CCOCC1)N1CCOCC(Cc2ncccn2)C1` (stereo not given), the cytotoxicity at 70.5 h is -10.5%.

For `Cc1nc(C(=O)N2CCOC(Cc3ccccc3)C2)co1` (stereo not given), the cytotoxicity at 70.5 h stood at 23%.

With `CN(c1ccccc1)c1ccc(CC2CCCN(CCO)C2)nn1` (stereo not given), the cytotoxicity at 70.5 h was 30.2%.

With `Cc1nonc1CN(C)Cc1cnn(-c2ccc(F)cc2)c1`, the cytotoxicity at 70.5 h amounted to 0.663%.

Regarding `Fc1ccc(F)c(CN2CCC(c3cnccn3)CC2)c1`, the cytotoxicity at 70.5 h was -5.3%.

With `Nc1nccnc1CC1CCCN(Cc2c[nH]c3ccccc23)C1` (stereo not given), the cytotoxicity at 70.5 h was -9.09%.

On to `Cc1c(C(=O)N[C@@H]2CC[C@@H](N3CCCC3)[C@@H]2O)[nH]c2ccc(F)cc12`, for which the cytotoxicity at 70.5 h was 6.16%.

`c1cc(CNc2ncc(-c3cnccn3)c(C3CC3)n2)ccn1`: the cytotoxicity at 70.5 h is -2.59%.

As for `Cc1cc(-c2ccc(=O)n(C3CCN(S(C)(=O)=O)CC3)n2)c(C)o1`, the cytotoxicity at 70.5 h amounted to 17.2%.

Turning to `CC(C)OC(=O)[C@@H]1CCN(C(=O)c2ccccn2)[C@@H]1c1ccc(F)cc1`, the cytotoxicity at 70.5 h was -6.08%.

As for `O=C(O)[C@@H]1CCN(C(=O)c2ccccn2)[C@@H]1c1ccc(F)cc1`, the cytotoxicity at 70.5 h is -7.21%.

For the compound `O=C(O)[C@@H]1CCN(C(=O)Cc2ccccn2)[C@@H]1c1ccc(F)cc1`, the cytotoxicity at 70.5 h is -7.95%.

Regarding `c1cc(CNc2ncc(-c3cnccn3)c([C@@H]3CCCO3)n2)ccn1`, the cytotoxicity at 70.5 h was -5.57%.

Take `COc1ccc(-c2nccc(C3CCCN3C)n2)cc1` (stereo not given): the cytotoxicity at 70.5 h was -2.22%.

For the compound `CN1CCC(c2cc(CCO)ncn2)C1` (stereo not given), the cytotoxicity at 70.5 h is 1.56%.

On to `CN1CCCC1c1ccnc(-c2ccccc2)n1` (stereo not given), for which the cytotoxicity at 70.5 h was -2.81%.

Regarding `CC(C)c1ncc(CN2CCCC2c2[nH]ncc2C(=O)N(C)C)cn1` (stereo not given), the cytotoxicity at 70.5 h was -5.06%.

With `O=C(CC1CCN(CCc2ccccc2)CC1)N1CCCOCC1`, the cytotoxicity at 70.5 h is -1.73%.

Regarding `CCN(CC)C(=O)CN1CCCC(c2nc(C)c3c(n2)N(C)CCC3)C1` (stereo not given), the cytotoxicity at 70.5 h stood at 0.707%.

With `CN1CCCC1c1ccnc(-c2ccccn2)n1` (stereo not given), the cytotoxicity at 70.5 h is -1.8%.

`CN(C)c1nc(O)cc(C2CCN(C(=O)Cc3ccccn3)C2)n1` (stereo not given): the cytotoxicity at 70.5 h is 1.91%.

Regarding `COc1ccccc1C1(O)CCCN(C(=O)c2cnc(SC)nc2)C1` (stereo not given), the cytotoxicity at 70.5 h is -3.73%.

Regarding `CC(C)c1nc(O)c2nnn(C[C@H]3CCCN(Cc4cccs4)C3)c2n1`, the cytotoxicity at 70.5 h came out at 32.6%.

For the compound `CC(C)c1nc(O)c2nnn(C[C@@H]3CCCN(Cc4ccsc4)C3)c2n1`, the cytotoxicity at 70.5 h was -2.22%.

For `CN(CCc1cn[nH]c1)C(=O)CCc1ccc(Cl)cc1`, the cytotoxicity at 70.5 h was -0.186%.

For `COc1ccc(N2CCN(C(=O)OC(C)(C)C)C(C(=O)O)C2)cc1` (stereo not given), the cytotoxicity at 70.5 h is -0.702%.

Turning to `Cc1nc(C2CCCN(C(C)C)C2)sc1Br` (stereo not given), the cytotoxicity at 70.5 h is -4.14%.

As to `NC1(CN2CCOCC2)CCCCC1`, the cytotoxicity at 70.5 h was -2.02%.

For the compound `CC(C)(C)OC(=O)N1CCN(c2ccc(F)cc2)CC1C(=O)O` (stereo not given), the cytotoxicity at 70.5 h is -1.03%.

Turning to `O=C(N[C@@H]1CC[C@@H](N2CCCC2)[C@@H]1O)c1cc2cccc(F)c2[nH]1`, the cytotoxicity at 70.5 h is -9.84%.

As to `Cc1n[nH]c(C)c1CCC(=O)N[C@@H]1CCC[C@@H](Oc2ccccc2)[C@@H]1O`, the cytotoxicity at 70.5 h was determined as 21.6%.

For `Cc1noc(C)c1CCC(=O)N[C@@H]1CC[C@@H](Oc2cccnc2)[C@@H]1O`, the cytotoxicity at 70.5 h was -3.66%.

`O=C(c1cc(C2CCCCC2)no1)N1C[C@H]2C[C@H](O)C[C@H]2C1`: the cytotoxicity at 70.5 h is -4.06%.

For the compound `Cc1noc(C2(C)CCCN(C(=O)C(C)C)C2)n1` (stereo not given), the cytotoxicity at 70.5 h is -0.687%.

For `Nc1ccc(CC2CCCN(Cc3c[nH]cn3)C2)nn1` (stereo not given), the cytotoxicity at 70.5 h is -2.3%.

For the compound `CN(C)C(=O)C1(C)CN(Cc2cn(C)c3ccc(F)cc23)CCO1` (stereo not given), the cytotoxicity at 70.5 h was found to be 9.86%.

With `COCCNC(=O)c1cc(C)nc(C2CCN(C)CC2)n1`, the cytotoxicity at 70.5 h is -3.41%.

In the case of `COc1ncc(CN2CCCC2c2[nH]ncc2C(=O)N(C)C)cn1` (stereo not given), the cytotoxicity at 70.5 h is 23.2%.

As for `O=C(NCC1(O)COCCN(Cc2cccc(O)c2)C1)c1cnccn1` (stereo not given), the cytotoxicity at 70.5 h is -3.85%.

For `CNC(=O)CN1CCOC(c2cccc(N)n2)C1` (stereo not given), the cytotoxicity at 70.5 h was -1.41%.

Consider `CC(=O)NCc1nccnc1C1CCN(C(=O)c2cc[nH]n2)CC1`, for which the cytotoxicity at 70.5 h is -6.68%.

`Cc1nccc(N2CCCC(C)(c3[nH]ncc3C(N)=O)C2)n1` (stereo not given): the cytotoxicity at 70.5 h is -4.04%.

As to `CN(C)c1cccc(C2CCN(c3ncccn3)CC2)n1`, the cytotoxicity at 70.5 h was -3.49%.

As for `NC(=O)c1cnc(-c2ccccc2)nc1CCNC(=O)CN1CCCC1`, the cytotoxicity at 70.5 h was 9.13%.

As to `COCCN1CCCC1(C)c1nc(C)cc(N)n1` (stereo not given), the cytotoxicity at 70.5 h worked out at 0.23%.

Consider `O=C(C1CC1)N1CCC(O)(CN2CCN(c3ccccc3)CC2)C1` (stereo not given), for which the cytotoxicity at 70.5 h was -4.63%.

Consider `Cc1cc(-c2ccccc2C(=O)O)nc(C2CCCN2S(C)(=O)=O)n1` (stereo not given), for which the cytotoxicity at 70.5 h is -1.81%.

Turning to `Cc1nn(C)cc1CN(Cc1ccccn1)Cc1ccccc1Cl`, the cytotoxicity at 70.5 h is 4.5%.

With `Cc1cc(C)nc(C2CCCN2C(=O)c2coc(C)n2)n1` (stereo not given), the cytotoxicity at 70.5 h was 23%.

For `Cc1cc(CN2CCc3nc(-c4ccncc4)nc(O)c3CC2)c(C)s1`, the cytotoxicity at 70.5 h is -7.8%.

In the case of `CC(C)C(C(N)=O)c1cccc(Cl)c1` (stereo not given), the cytotoxicity at 70.5 h is -3.86%.

For the compound `Cn1cc(S(=O)(=O)Nc2ccc3[nH]c(C4CCC4)nc3c2)cn1`, the cytotoxicity at 70.5 h came out at 0.665%.

In the case of `CNC(=O)C(c1cccc(Cl)c1)C(C)C` (stereo not given), the cytotoxicity at 70.5 h was found to be 17.1%.

With `Cc1ccccc1-n1ccnc1S(=O)(=O)Cc1nsc(N(C)C)n1`, the cytotoxicity at 70.5 h is -11%.

Consider `Cc1ccnc2c1NC(=O)CN2C(=O)CCC(F)(F)F`, for which the cytotoxicity at 70.5 h is -6.32%.

Regarding `CNC(=O)Cc1ccc(NC(=O)NCC(C)c2ncc(C)s2)cc1` (stereo not given), the cytotoxicity at 70.5 h was -12.5%.

In the case of `CCOCCOC(C)C(=O)Nc1nccn1Cc1ccccc1` (stereo not given), the cytotoxicity at 70.5 h was -15%.

As for `Cc1ccc(C)c(CC(=O)NC2CCC(N3C(=O)CCC3=O)CC2)c1` (stereo not given), the cytotoxicity at 70.5 h is -1.42%.

As to `O=C(NCCn1ccnc1)C1COCC(=O)N1Cc1ccccc1` (stereo not given), the cytotoxicity at 70.5 h was 9.74%.

With `CC(C#N)NS(=O)(=O)c1cccc(C(C)C)c1` (stereo not given), the cytotoxicity at 70.5 h was -15.4%.

Consider `CCC1CCCCN1C(=O)Cn1cnc(C#N)n1` (stereo not given), for which the cytotoxicity at 70.5 h is -4.5%.

Regarding `CC(C)OCCS(=O)(=O)N1CCN(Cc2cccn2C)CC1`, the cytotoxicity at 70.5 h is -8.85%.

As for `CN(C)S(=O)(=O)N(C)C(c1cccnc1)c1ccc(F)c(F)c1` (stereo not given), the cytotoxicity at 70.5 h was found to be 14.4%.

In the case of `COCC(=O)N1CCN(C(C)C(=O)NC(C)C)CC1` (stereo not given), the cytotoxicity at 70.5 h stood at 5.85%.

Take `CC(C)(C)c1cc(NC(=O)CN(Cc2ccco2)Cc2cccs2)on1`: the cytotoxicity at 70.5 h came to 4.01%.

Consider `CC(C)(C)c1cc(NC(=O)CN(Cc2cccs2)Cc2cccs2)on1`, for which the cytotoxicity at 70.5 h is -8.34%.

For the compound `CCOC(=O)N1CCC(C(=O)Nc2nnc(C(F)(F)F)[nH]2)CC1`, the cytotoxicity at 70.5 h is 5.31%.

Regarding `CC(=O)N1CCC(C(=O)Nc2nnc(C(F)(F)F)[nH]2)CC1`, the cytotoxicity at 70.5 h was -8.53%.

Regarding `CN(CCCOc1ccccc1)S(=O)(=O)N1CCOCC1`, the cytotoxicity at 70.5 h was -12.8%.

`CN(CCOc1ccc(F)cc1)S(=O)(=O)N1CCOCC1`: the cytotoxicity at 70.5 h is -9.68%.

In the case of `CC(=O)NCCNC(=O)c1sccc1Br`, the cytotoxicity at 70.5 h was -16.2%.

In the case of `CCOc1nnc(CN2CCC(c3cc4ccccc4[nH]3)CC2)s1`, the cytotoxicity at 70.5 h was -5.08%.

As for `CC(c1ccco1)N(C(=O)CNc1ccc(C#N)cc1)C1CC1` (stereo not given), the cytotoxicity at 70.5 h stood at 4.38%.

Take `CC(C1CC1)N(C(=O)CNc1ccc(C#N)cc1)C1CC1` (stereo not given): the cytotoxicity at 70.5 h was -6.5%.

As to `c1nc2c(c(N3CCOC(Cn4cncn4)C3)n1)CCC2` (stereo not given), the cytotoxicity at 70.5 h was -7.61%.

On to `c1nc2c(c(N3CCCC(Cn4cncn4)C3)n1)CCC2` (stereo not given), for which the cytotoxicity at 70.5 h is -7.36%.

Consider `O=C(NCCNC(=O)C1CC1)c1sccc1Br`, for which the cytotoxicity at 70.5 h is -6.03%.

`CC(C)COCCC(=O)Nc1cc(-n2nnnc2C2CC2)ccc1F`: the cytotoxicity at 70.5 h was -8.14%.

With `CCOc1ccccc1CCNC(=O)NCC(O)c1ccsc1` (stereo not given), the cytotoxicity at 70.5 h was -0.583%.

With `CC(C)C(C#N)N1CCN(C(=O)c2cc(-c3ccccn3)no2)CC1` (stereo not given), the cytotoxicity at 70.5 h was found to be 3.13%.

In the case of `CCCS(=O)(=O)NC(=O)c1ccc(-n2nc(C)cc2C)cc1`, the cytotoxicity at 70.5 h is -6.42%.

Take `CN1CCOC(C(=O)Nc2nc(-c3ccccc3F)n[nH]2)C1` (stereo not given): the cytotoxicity at 70.5 h is -6.97%.

As for `c1cnn(CC2CN(c3ncnc4c3CCC4)CCO2)c1` (stereo not given), the cytotoxicity at 70.5 h was -9.89%.

As for `CC(NC(=O)c1ccoc1)C(=O)N(C)Cc1ccc(O)cc1` (stereo not given), the cytotoxicity at 70.5 h was 3.58%.

Turning to `Cc1cnn(C2CN(C(C)c3nc(-c4ccccc4)no3)C2)c1` (stereo not given), the cytotoxicity at 70.5 h is -8.84%.

Take `COc1ccnc(N(C)Cc2csc(C)n2)n1`: the cytotoxicity at 70.5 h is -6.22%.

For the compound `CCC1CCCCCN1C(=O)c1coc(S(=O)(=O)N(C)C)c1` (stereo not given), the cytotoxicity at 70.5 h is -12.3%.

Consider `N#Cc1c(CN2CCCCC2Cn2cncn2)cn2ccccc12` (stereo not given), for which the cytotoxicity at 70.5 h is 5.14%.

For the compound `COc1ccc(COCC(O)CSc2ccc(NC(C)=O)cc2)cc1` (stereo not given), the cytotoxicity at 70.5 h is -10.5%.

For `CC(=O)Nc1ccc(SCC(O)COCc2ccco2)cc1` (stereo not given), the cytotoxicity at 70.5 h was -12%.

Take `O=C(NCc1ccnc(OCC(F)(F)F)c1)NCC1CCCO1` (stereo not given): the cytotoxicity at 70.5 h is 0.67%.

With `CC(CN1CCOCC1)NC(=O)Nc1cccnc1-n1cccn1` (stereo not given), the cytotoxicity at 70.5 h is -14%.

Consider `O=C(NCCN1CCCCCC1=O)Nc1cccnc1-n1cccn1`, for which the cytotoxicity at 70.5 h was 23.5%.

Turning to `CC(=O)NCCNC(=O)c1nc(C2CC2)n(-c2ccccc2Cl)n1`, the cytotoxicity at 70.5 h was -13.6%.

As to `COCCNC(=O)c1sc2ccccc2c1C1CCC(CN)CC1` (stereo not given), the cytotoxicity at 70.5 h was -1.66%.

With `Cc1nc(NCc2cccc(F)c2)cc(C2CCNCC2)n1`, the cytotoxicity at 70.5 h came to 0.802%.

For the compound `CC(C)NC(=O)c1sc2ccccc2c1[C@H]1CC[C@H](CN)CC1`, the cytotoxicity at 70.5 h amounted to 38.7%.

As for `c1nc(CN2CCCC(Cc3ccc(NC4CCCC4)nn3)C2)c[nH]1` (stereo not given), the cytotoxicity at 70.5 h turned out to be 0.181%.

Turning to `Cc1ccccc1OC1CCN(CC(=O)Nc2cnn(C)c2C)CC1`, the cytotoxicity at 70.5 h was -2.68%.
